Test results from patent publication EP4775583A1, “COMPOUND OR SALT THEREOF, METHOD FOR PRODUCING SAME, PHARMACEUTICAL COMPOSITION CONTAINING COMPOUND OR SALT THEREOF, AND METHOD FOR PRODUCING SAME” (Celaid Therapeutics Inc., priority 2023, dated 2025).
Entries after “also recorded” stand apart in the source; their conditions may differ. Structures can show the parent of a compound that is named as a salt.

Key:
[1] = tested on: mouse neuroblastoma N2a cells; experiment: Neurite outgrowth assay; assay type: cell-based; settings: for neurite outgrowth / neurite outgrowth-promoting activity, comparison between compounds: 0.2 µM, 48 h treatment (Fig. 21(B)); for neurite outgrowth-promoting activity, comparison between compounds: structure-activity comparison; for dose-dependent neurite outgrowth activity: 0.02 - 2 µM, 48 h treatment (Fig. 21(C))
Procedure: The Mouse Neuro-2a (N2a) cell line was obtained from the Japanese Collection of Research Bioresources (JCRB) Cell Bank. The N2a cells were plated at a concentration of 1 × 10^4 cells/mL in Dulbecco's modified Eagle's medium (hereinafter also referred to as DMEM) containing high glucose, 10% FBS, 100 U/mL penicillin, and 100 µg/mL streptomycin at 37 °C in a humidified atmosphere of 5% CO2.
For the neurite outgrowth assay, the medium was changed to DMEM supplemented with 2% FBS. After incubation with the test compounds, cell morphology was examined using a microscope (Olympus CKX41).
The differentiated cells were defined as those with at least one neurite that was longer than twice the diameter of the cell body. The results were expressed as the percentage of differentiated cells among the counted cells. These experiments were carried out in triplicate.

KDM5A [2] = biological target: T1, KDM5A (Mus musculus, UniProt Q3UXZ9); experiment: Western blot detection of KDM5A levels (degradation); assay type: cell-based; settings: N2a cells
T1 construct: Western Blot-Detection of KDM5A Levels in N2a Cells; endogenous in cells; host or cells: N2a (mouse neuroblastoma neuro-2a) cells
T1 sequence (Q3UXZ9 whole entry): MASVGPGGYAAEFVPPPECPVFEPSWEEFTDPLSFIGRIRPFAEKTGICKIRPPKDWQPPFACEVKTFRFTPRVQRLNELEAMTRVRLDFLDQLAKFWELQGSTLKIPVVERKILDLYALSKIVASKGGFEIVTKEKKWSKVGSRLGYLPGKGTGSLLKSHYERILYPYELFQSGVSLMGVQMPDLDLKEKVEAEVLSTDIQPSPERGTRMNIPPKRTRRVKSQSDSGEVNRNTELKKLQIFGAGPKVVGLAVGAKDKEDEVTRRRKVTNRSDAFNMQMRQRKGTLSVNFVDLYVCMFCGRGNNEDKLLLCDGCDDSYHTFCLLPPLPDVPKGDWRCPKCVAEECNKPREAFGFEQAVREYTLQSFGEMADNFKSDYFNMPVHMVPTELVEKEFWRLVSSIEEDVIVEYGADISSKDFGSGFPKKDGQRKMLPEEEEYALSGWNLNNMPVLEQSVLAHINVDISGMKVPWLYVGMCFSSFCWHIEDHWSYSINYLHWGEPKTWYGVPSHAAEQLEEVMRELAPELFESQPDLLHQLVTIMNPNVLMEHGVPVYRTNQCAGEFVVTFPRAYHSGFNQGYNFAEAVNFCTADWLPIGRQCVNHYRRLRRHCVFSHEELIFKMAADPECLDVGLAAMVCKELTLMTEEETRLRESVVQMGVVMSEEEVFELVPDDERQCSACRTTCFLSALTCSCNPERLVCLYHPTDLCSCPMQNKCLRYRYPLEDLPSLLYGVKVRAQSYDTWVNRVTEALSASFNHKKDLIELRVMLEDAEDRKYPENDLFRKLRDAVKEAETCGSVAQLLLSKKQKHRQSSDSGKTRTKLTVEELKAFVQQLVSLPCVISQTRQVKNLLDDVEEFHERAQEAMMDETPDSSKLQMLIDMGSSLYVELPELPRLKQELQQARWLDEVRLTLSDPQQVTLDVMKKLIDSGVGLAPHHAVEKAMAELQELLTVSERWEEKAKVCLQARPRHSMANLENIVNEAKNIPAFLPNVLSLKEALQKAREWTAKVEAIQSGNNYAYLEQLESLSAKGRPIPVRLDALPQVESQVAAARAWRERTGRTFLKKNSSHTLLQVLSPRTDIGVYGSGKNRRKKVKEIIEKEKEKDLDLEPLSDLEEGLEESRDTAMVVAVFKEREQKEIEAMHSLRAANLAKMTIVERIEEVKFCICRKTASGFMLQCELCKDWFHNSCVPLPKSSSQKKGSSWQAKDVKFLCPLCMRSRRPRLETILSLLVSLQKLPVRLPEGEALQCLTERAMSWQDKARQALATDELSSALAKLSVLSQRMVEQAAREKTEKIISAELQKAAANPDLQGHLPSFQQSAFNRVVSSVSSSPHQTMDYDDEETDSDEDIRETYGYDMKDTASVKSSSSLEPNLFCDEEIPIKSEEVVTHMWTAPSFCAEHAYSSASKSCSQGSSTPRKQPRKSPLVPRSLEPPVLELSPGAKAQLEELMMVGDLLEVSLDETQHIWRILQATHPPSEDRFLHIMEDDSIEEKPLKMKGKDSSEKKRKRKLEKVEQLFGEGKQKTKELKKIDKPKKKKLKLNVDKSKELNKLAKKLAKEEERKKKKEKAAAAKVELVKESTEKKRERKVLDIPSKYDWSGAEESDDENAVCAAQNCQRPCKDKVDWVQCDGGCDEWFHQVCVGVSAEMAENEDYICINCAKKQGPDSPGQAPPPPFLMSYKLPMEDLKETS
Procedure: (§1) The N2a cells (5 × 10^5 cells/2 mL/dish) were treated for 24 h with the test compounds at the indicated concentrations in a 10% FBS-supplemented cell culture medium, and cells were collected and extracted with SDS sampling buffer. Protein concentrations of the lysates were determined using a BCA protein assay. Equivalent amounts of protein from each lysate were resolved in 5% to 20% SDS-polyacrylamide gels, and bands were transferred onto PVDF membranes (Millipore, #IPVH00010 for β-actin detection, #ISEQ10100 for H3, H3K4me3, and H3K27Ac detection). After blocking with TBS-T containing 5% skimmed milk, the transblotted membranes were probed with primary antibodies. The following antibodies were used as the primary antibodies: rabbit monoclonal KDM5A antibody (CST #3876, 1 : 1000 dilution); mouse monoclonal β-actin antibody (Santa Cruz, #sc-47778, 1 : 2000 dilution); rabbit polyclonal H3K4me3 antibody (Abcam, #ab8580, 1 : 5000 dilution); rabbit polyclonal H3K27Ac antibody (Abcam, #ab4729, 1 : 1000 dilution); or rabbit polyclonal histone H3 antibody (Abcam, #ab1791, 1 : 200000 dilution). […]

H3K4me3 = experiment: Western blot detection of H3K4me3 levels; assay type: cell-based, Mouse; settings: N2a cells, 24 h treatment (Fig. 26)
Procedure: as §1

H3K27Ac = experiment: Western blot detection of H3K27Ac levels; assay type: cell-based, Mouse; settings: N2a cells, 24 h treatment (Fig. 26)
Procedure: as §1

KDM5A [3] = biological target: KDM5A (Homo sapiens, UniProt P29375); experiment: KDM5A inhibitory activity, in vitro assay; assay type: biochemical; settings: in vitro assay (Fig. 27)
KDM5A (Homo sapiens, UniProt P29375), sequence (P29375 whole entry, species assumed): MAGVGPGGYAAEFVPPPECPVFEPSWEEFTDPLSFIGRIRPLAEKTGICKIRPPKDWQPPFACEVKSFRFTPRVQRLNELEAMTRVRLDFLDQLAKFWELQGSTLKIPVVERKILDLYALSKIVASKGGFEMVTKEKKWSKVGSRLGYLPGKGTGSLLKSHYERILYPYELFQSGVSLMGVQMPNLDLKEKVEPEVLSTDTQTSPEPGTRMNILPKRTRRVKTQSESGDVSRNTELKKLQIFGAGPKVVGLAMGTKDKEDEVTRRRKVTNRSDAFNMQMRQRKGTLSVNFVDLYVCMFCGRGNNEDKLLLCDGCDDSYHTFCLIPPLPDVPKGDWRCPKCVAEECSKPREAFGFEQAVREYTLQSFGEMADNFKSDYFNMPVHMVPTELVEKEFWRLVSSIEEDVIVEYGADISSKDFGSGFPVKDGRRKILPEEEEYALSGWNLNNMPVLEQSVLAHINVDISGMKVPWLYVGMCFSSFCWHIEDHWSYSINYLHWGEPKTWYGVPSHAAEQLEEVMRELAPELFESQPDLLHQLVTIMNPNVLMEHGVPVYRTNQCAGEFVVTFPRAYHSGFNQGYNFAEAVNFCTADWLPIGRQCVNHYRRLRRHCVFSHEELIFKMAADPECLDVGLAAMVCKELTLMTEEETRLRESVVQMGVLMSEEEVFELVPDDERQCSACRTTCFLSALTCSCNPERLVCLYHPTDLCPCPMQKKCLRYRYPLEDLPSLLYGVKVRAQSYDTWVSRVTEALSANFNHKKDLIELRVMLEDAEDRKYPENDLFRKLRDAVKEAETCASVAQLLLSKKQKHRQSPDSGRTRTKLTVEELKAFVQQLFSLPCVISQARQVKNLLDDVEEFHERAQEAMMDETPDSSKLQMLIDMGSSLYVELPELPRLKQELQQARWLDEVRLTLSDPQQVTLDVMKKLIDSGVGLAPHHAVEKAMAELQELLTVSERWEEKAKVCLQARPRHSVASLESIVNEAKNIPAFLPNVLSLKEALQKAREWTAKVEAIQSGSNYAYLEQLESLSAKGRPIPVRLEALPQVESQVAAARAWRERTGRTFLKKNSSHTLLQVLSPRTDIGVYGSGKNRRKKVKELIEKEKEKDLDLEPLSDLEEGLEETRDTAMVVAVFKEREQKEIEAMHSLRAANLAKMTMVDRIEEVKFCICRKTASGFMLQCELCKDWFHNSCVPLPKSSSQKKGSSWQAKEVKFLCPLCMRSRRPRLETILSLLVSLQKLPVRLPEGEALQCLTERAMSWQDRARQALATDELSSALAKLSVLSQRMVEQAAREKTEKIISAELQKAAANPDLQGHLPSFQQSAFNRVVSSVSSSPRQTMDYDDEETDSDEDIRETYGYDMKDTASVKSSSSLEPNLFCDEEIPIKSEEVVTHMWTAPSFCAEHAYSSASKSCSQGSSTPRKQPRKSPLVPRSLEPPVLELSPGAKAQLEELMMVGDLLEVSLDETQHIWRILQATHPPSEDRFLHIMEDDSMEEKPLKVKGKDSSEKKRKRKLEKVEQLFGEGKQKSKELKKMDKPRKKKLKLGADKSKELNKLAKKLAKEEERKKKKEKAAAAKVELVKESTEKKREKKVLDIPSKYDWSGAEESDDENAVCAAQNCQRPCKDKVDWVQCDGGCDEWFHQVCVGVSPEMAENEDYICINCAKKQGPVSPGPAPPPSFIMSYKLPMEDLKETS

HDAC1 = HDAC1 (Homo sapiens, UniProt Q13547); experiment: HDAC1 inhibitory activity, in vitro assay; assay type: biochemical; settings: in vitro assay (Fig. 27)
HDAC1, sequence (Q13547 whole entry, species assumed): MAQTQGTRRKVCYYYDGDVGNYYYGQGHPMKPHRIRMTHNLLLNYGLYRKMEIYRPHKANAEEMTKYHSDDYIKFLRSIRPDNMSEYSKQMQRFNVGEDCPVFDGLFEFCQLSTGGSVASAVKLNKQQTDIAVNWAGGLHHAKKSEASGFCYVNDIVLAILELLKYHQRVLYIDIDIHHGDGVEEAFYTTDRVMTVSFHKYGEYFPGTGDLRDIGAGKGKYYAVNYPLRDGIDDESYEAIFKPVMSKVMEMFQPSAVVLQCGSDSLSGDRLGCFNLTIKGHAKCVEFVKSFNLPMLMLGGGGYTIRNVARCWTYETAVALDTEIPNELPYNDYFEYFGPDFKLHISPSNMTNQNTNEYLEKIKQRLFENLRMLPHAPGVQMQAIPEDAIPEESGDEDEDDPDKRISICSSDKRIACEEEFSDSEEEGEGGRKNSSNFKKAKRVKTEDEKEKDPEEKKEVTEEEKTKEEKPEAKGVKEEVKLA

In the case of CC(C)c1c(-c2ccc(CCN(C)CCCCCCC(=O)NCCOCCOCCOc3cccc4c3C(=O)N(C3CCC(=O)NC3=O)C4=O)cc2)[nH]c2c(C#N)cnn2c1=O (centres unmarked) [Compound 14a, hydrochloride], the neurite outgrowth ([1]; N2a cells) is reported as “promoted neurite outgrowth”.

In the case of CC(C)c1c(-c2ccc(CCN(C)CCCCCCCCCC(=O)NCCOCCOCCOc3cccc4c3C(=O)N(C3CCC(=O)NC3=O)C4=O)cc2)[nH]c2c(C#N)cnn2c1=O (centres unmarked) [Compound 14b, 10-{[4-(3-Cyano-6-isopropyl-7-oxo-4,7-dihydropyrazolo[1,5-a]pyrimidin-5-yl)phenethyl](methyl)-amino}-N-{2-[2-(2,6-dioxopiperidin-3-yl)-1,3-dioxoindolin-4-yl]oxy}ethoxy}ethyl}decanamide Hydrochloride], the neurite outgrowth ([1]; N2a cells) is reported as “promoted neurite outgrowth” and the “neurite outgrowth-promoting activity, comparison between compounds” value ([1]; N2a cells) is reported as “stronger neurite outgrowth-promoting activity than compound 14a”.

With CC(C)c1c(-c2ccc(CCN(C)CCCCCCc3ccc(C(=O)NCCOCCOCCOc4cccc5c4C(=O)N(C4CCC(=O)NC4=O)C5=O)cc3)cc2)[nH]c2c(C#N)cnn2c1=O (centres unmarked) [Compound 20a] the neurite outgrowth ([1]; N2a cells) was “promoted neurite outgrowth”.

CC(C)c1c(-c2ccc(CCN(C)CCCCCCc3ccc(C(=O)NCCCCCCOc4cccc5c4C(=O)N(C4CCC(=O)NC4=O)C5=O)cc3)cc2)[nH]c2c(C#N)cnn2c1=O (centres unmarked) [Compound 23a, 4-(6-{[4-(3-cyano-6-isopropyl-7-oxo-4,7-dihydropyrazolo[1,5-a]pyrimidin-5-yl)phenethyl](methyl)amino}hexyl)-N-(6-{[2-(2,6-dioxopiperidin-3-yl) -1, 3 - dioxoindolin-4-yl]oxy}hexyl) benzamide hydrochloride] was tested, and the neurite outgrowth ([1]; N2a cells) was “promoted neurite outgrowth”.

CC(C)c1c(-c2ccc(CCN(C)CCCCCCc3cccc(C(=O)NCCCCCCOc4cccc5c4C(=O)N(C4CCC(=O)NC4=O)C5=O)c3)cc2)[nH]c2c(C#N)cnn2c1=O (centres unmarked) [Compound 23b, 3-(6-{[4-(3-Cyano-6-isopropyl-7-oxo-4,7-dihydropyrazolo[1,5-a]pyrimidin-5-yl)phenethyl](methyl)-amino}hexyl)-N-(6-{[2-(2,6-dioxopiperidin-3-yl)-1,3-dioxoindolin-4-yl]oxy}hexyl)benzamide Hydrochloride] was tested, and the “neurite outgrowth-promoting activity, overall assessment” value ([1]; N2a cells (Fig. 21(B))) was “remarkable neurite outgrowth-promoting activity”, the “time-dependent neurite outgrowth activity (number of neurite cells)” value ([1]; N2a cells, 0.02 µM, 24, 48 and 72 hours (Fig. 21(D))) was “increased the number of neurite cells in a time-dependent manner” and the neurite outgrowth ([1]; N2a cells) was “promoted neurite outgrowth”. The “neurite outgrowth-promoting activity, comparison between compounds” value ([1]; N2a cells, Hydrochloride) was “superior to those of the para-substituent compounds 20a and 23a; also recorded: slightly better than that of the polyethylene linker compound 20b”, the “dose-dependent neurite outgrowth activity” value ([1]; N2a cells) was “promoted neurite outgrowth” and the “KDM5A levels on co-treatment with proteasome inhibitor MG-132” value (KDM5A [2]; 24 h co-treatment with MG-132 (Fig. 25(C), 25(D))) was “disturbed by the proteasome inhibitor MG-132”. The KDM5A levels (KDM5A [2]; 24 h treatment (Fig. 25(A), 25(B))) was “decreased KDM5A levels in a dose-dependent manner”, the H3K4me3 levels (H3K4me3) was “dose-dependent accumulation of H3K4me3 levels” and the H3K27Ac levels (H3K27Ac) was “upregulated H3K27Ac levels”. For the same molecule, the KDM5A inhibitory activity (KDM5A [3]) was “strongly inhibited KDM5A” and the HDAC1 inhibitory activity (HDAC1) was “without affecting HDAC1”.

For O=C1CCC(N2C(=O)c3ccccc3C2=O)C(=O)N1 (centres unmarked) [Compound 26, thalidomide, reference compound], the “dose-dependent neurite outgrowth activity” value ([1]; N2a cells) was “did not show strong neurite outgrowth activity relative to Compounds 20b and 23b”.
